The target of this assay is T1, N-terminal HiBiT tagged BCL-XL (Homo sapiens, UniProt Q07817).
T1 construct: expressed in transfected cells; host or cells: HT-1080 (ATCC CCL-121) cells stably transduced with lentivirus pLV-UBC-N-HiBiT-BCL-XL-PGK-puro
Put plainly: HiBiT based degradation assay. It is filed as cell-based. The conditions noted are these: HT1080 cells expressing N-terminal HiBiT tagged BCL-XL, BCL-XL level normalized with DMSO control. The source says: Human BCL-XL protein coding open reading frame fused with N-terminal HiBiT coding sequence was synthesized from Integrated DNA Technologies (IDT). Next, N-HiBiT-BCL-XL sequence was cloned into pLV-UBC-PGK-Puro, a lentivirus plasmid purchased from Vectorbuilder, to generate pLV-UBC-N-HiBiT-BCL-XL-PGK-puro. Lentiviral particles were generated from Lenti-X™ 293T cells (Clontech) by co-transfection of pLV-UBC-N-HiBiT-BCL-XL-PGK-puro plasmids and lentiviral packaging plasmid mix (Cellecta). HT-1080 [HT1080](ATCC CCL-121) cells were infected with the lentivirus, and HT1080 cells stably integrated with the lentiviral vectors were established by incubation with […] puromycin (Thermofisher).
HT1080 cells expressing N-terminal HiBiT tagged BCL-XL were dispensed into a 384-well plate pre-spotted with compounds at varying concentrations. Three thousand cells were seeded into each well in 40 μL of RPMI 1640 media. […] After incubation, luminescence was read on a PHERAstar FSX Plate Reader (BMG). BCL-XL degradation at each indicated concentration was normalized with the DMSO control. The BCL-XL degradation curves were plotted using a four-parameter logistic model. For compounds displaying hook effects, the curve fitting was performed using the bottom point of the hook curves (i.e., the point of Ymin) as the bottom plateau to calculate EC50.
(The HiBiT peptide binds its large partner to form an active luciferase.)

Structures are written as SMILES.

T1 sequence (Q07817 whole entry): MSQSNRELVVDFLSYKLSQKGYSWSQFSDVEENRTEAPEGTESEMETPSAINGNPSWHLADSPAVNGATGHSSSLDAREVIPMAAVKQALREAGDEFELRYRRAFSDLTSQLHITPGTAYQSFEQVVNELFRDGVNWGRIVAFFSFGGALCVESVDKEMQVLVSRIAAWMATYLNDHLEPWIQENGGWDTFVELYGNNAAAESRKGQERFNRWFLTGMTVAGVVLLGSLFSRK

For the compound `Cc1c(O[C@H]2CC[C@H](CCC(=O)N3CCN(c4cc5c(cc4F)C(=O)N(C4CCC(=O)NC4=O)C5=O)CC3)CC2)cccc1-c1ccc(N2CCc3cccc(C(=O)Nc4nc5ccccc5s4)c3C2)nc1C(=O)O` (stereo partly shown) [Compound 111a, 6-(8-(benzo[d]thiazol-2-ylcarbamoyl)-3,4-dihydroisoquinolin-2(1H)-yl)-3-(3-(((1r,4r)-4-(3-(4-(2-(2,6-dioxopiperidin-3-yl)-6-fluoro-1,3-dioxoisoindolin-5-yl)piperazin-1-yl)-3-oxopropyl)cyclohexyl)oxy)-2-methylphenyl)picolinic acid], the “Ymin (6 h)” value is “B (50% ≤ Ymin < 70%)” and the “Ymin (24 h)” value is recorded as “B (50% ≤ Ymin < 70%)”. Consider `Cc1c(OCCCCC2CCN(CC3CCN(c4cc5c(cc4F)C(=O)N(C4CCC(=O)NC4=O)C5=O)CC3)CC2)cccc1-c1ccc(N2CCc3cccc(C(=O)Nc4nc5ccccc5s4)c3C2)nc1C(=O)O` (stereo not shown) [Compound 144, 6-[8-(1,3-benzothiazol-2-ylcarbamoyl)-3,4-dihydro-1H-isoquinolin-2-yl]-3-[3-[4-[1-[[1-[2-(2,6-dioxo-3-piperidyl)-6-fluoro-1,3-dioxo-isoindolin-5-yl]-4-piperidyl]methyl]-4-piperidyl]butoxy]-2-methyl-phenyl]pyridine-2-carboxylic acid], for which the “Ymin (24 h)” value is “A (Ymin < 50%)”.

In the case of `Cc1c(Oc2ccc(CCCC(=O)N3CCN(c4cc5c(cc4F)C(=O)N(C4CCC(=O)NC4=O)C5=O)CC3)cc2)cccc1-c1ccc(N2CCc3cccc(C(=O)Nc4nc5ccccc5s4)c3C2)nc1C(=O)O` (stereo not shown) [Compound 119, 6-(8-(benzo[d]thiazol-2-ylcarbamoyl)-3,4-dihydroisoquinolin-2(1H)-yl)-3-(3-(4-(4-(4-(2-(2,6-dioxopiperidin-3-yl)-6-fluoro-1,3-dioxoisoindolin-5-yl)piperazin-1-yl)-4-oxobutyl)phenoxy)-2-methylphenyl)picolinic acid], the “Ymin (6 h)” value is listed as “C (Ymin ≥ 70%)” and the “Ymin (24 h)” value was “B (50% ≤ Ymin < 70%)”.

For the compound `Cc1c(OCCCCCCCCC(=O)N2CCN(c3cc4c(cc3F)C(=O)N(C3CCC(=O)NC3=O)C4=O)CC2)cccc1-c1ccc(N2CCc3cccc(C(=O)Nc4nc5ccccc5s4)c3C2)nc1C(=O)O` (stereo not shown) [Compound 109], the “Ymin (6 h)” value is given as “B (50% ≤ Ymin < 70%)”.

Consider `Cc1c(OCCCCCCCC(=O)N2CCN(c3cc4c(cc3F)C(=O)N(C3CCC(=O)NC3=O)C4=O)CC2)cccc1-c1ccc(N2CCc3cccc(C(=O)Nc4nc5ccccc5s4)c3C2)nc1C(=O)O` (stereo not shown) [Compound 114], for which the “Ymin (6 h)” value is on record as “B (50% ≤ Ymin < 70%)”.

As for `Cc1c(O[C@H]2CC[C@H](CCC(=O)N3CCC(c4cc5c(cc4F)C(=O)N(C4CCC(=O)NC4=O)C5=O)CC3)CC2)cccc1-c1ccc(N2CCc3cccc(C(=O)Nc4nc5ccccc5s4)c3C2)nc1C(=O)O` (stereo partly shown) [Compound 140a, 6-(8-(benzo[d]thiazol-2-ylcarbamoyl)-3,4-dihydroisoquinolin-2(1H)-yl)-3-(3-(((1r,4r)-4-(3-(4-(2-(2,6-dioxopiperidin-3-yl)-6-fluoro-1,3-dioxoisoindolin-5-yl)piperidin-1-yl)-3-oxopropyl)cyclohexyl)oxy)-2-methylphenyl)picolinic acid], the “Ymin (6 h)” value is recorded as “C (Ymin ≥ 70%)” and the “Ymin (24 h)” value is “A (Ymin < 50%)”.

Regarding `Cc1c(OCCCC2CCN(CC3CCN(c4cc5c(cc4F)C(=O)N(C4CCC(=O)NC4=O)C5=O)CC3)CC2)cccc1-c1ccc(N2CCc3cccc(C(=O)Nc4nc5ccccc5s4)c3C2)nc1C(=O)O` (stereo not shown) [Compound 143, 6-[8-(1,3-benzothiazol-2-ylcarbamoyl)-3,4-dihydro-1H-isoquinolin-2-yl]-3-[3-[3-[1-[[1-[2-(2,6-dioxo-3-piperidyl)-6-fluoro-1,3-dioxo-isoindolin-5-yl]-4-piperidyl]methyl]-4-piperidyl]propoxy]-2-methyl-phenyl]pyridine-2-carboxylic acid], the “Ymin (24 h)” value is listed as “B (50% ≤ Ymin < 70%)”. Consider `Cc1c(OCCCC2CCN([C@H](C)C(=O)N3CCN(c4cc5c(cc4F)C(=O)N(C4CCC(=O)NC4=O)C5=O)CC3)CC2)cccc1-c1ccc(N2CCc3cccc(C(=O)Nc4nc5ccccc5s4)c3C2)nc1C(=O)O` (stereo partly drawn) [Compound 124b, 6-(8-(benzo[d]thiazol-2-ylcarbamoyl)-3,4-dihydroisoquinolin-2(1H)-yl)-3-(3-(3-(1-((2R)-1-(4-(2-(2,6-dioxopiperidin-3-yl)-6-fluoro-1,3-dioxoisoindolin-5-yl)piperazin-1-yl)-1-oxopropan-2-yl)piperidin-4-yl)propoxy)-2-methylphenyl)picolinic acid], for which the “Ymin (24 h)” value is “B (50% ≤ Ymin < 70%)”. In the case of `Cc1c(OCC2CC3(CCN(CCN4CCN(c5cc6c(cc5F)C(=O)N(C5CCC(=O)NC5=O)C6=O)CC4)CC3)C2)cccc1-c1ccc(N2CCc3cccc(C(=O)Nc4nc5ccccc5s4)c3C2)nc1C(=O)O` (stereo not shown) [Compound 132, 6-(8-(benzo[d]thiazol-2-ylcarbamoyl)-3,4-dihydroisoquinolin-2(1H)-yl)-3-(3-((7-(2-(4-(2-(2,6-dioxopiperidin-3-yl)-6-fluoro-1,3-dioxoisoindolin-5-yl)piperazin-1-yl)ethyl)-7-azaspiro[3.5]nonan-2-yl)methoxy)-2-methylphenyl)picolinic acid], the “Ymin (24 h)” value is “B (50% ≤ Ymin < 70%)”. The same measure, in the same setting: in the case of `Cc1c(OCC[C@@H](C)C2CCN(CC(=O)N3CCN(c4cc5c(cc4F)C(=O)N(C4CCC(=O)NC4=O)C5=O)CC3)CC2)cccc1-c1ccc(N2CCc3cccc(C(=O)Nc4nc5ccccc5s4)c3C2)nc1C(=O)O` (stereo partly shown) [Compound 130b] it was “C (Ymin ≥ 70%)”; in that of `Cc1c(OCCCCN2CCC(CN3CCN(c4cc5c(cc4F)C(=O)N(C4CCC(=O)NC4=O)C5=O)CC3)CC2)cccc1-c1ccc(N2CCc3cccc(C(=O)Nc4nc5ccccc5s4)c3C2)nc1C(=O)O` (stereo not shown) [Compound 123, 6-[8-(1,3-benzothiazol-2-ylcarbamoyl)-3,4-dihydro-1H-isoquinolin-2-yl]-3-[3-[4-[4-[[4-[2-(2,6-dioxo-3-piperidyl)-6-fluoro-1,3-dioxo-isoindolin-5-yl]piperazin-1-yl]methyl]-1-piperidyl]butoxy]-2-methyl-phenyl]pyridine-2-carboxylic acid], “B (50% ≤ Ymin < 70%)”. Consider `O=C1CCC(N2C(=O)c3cc(F)c(N4CCN(CCCCCCCOc5cccc(-c6ccc(N7CCc8cccc(C(=O)Nc9nc%10ccccc%10s9)c8C7)nc6C(=O)O)c5)CC4)cc3C2=O)C(=O)N1` (stereo not shown) [Compound 103], for which the “Ymin (6 h)” value is reported as “B (50% ≤ Ymin < 70%)”. Take `Cc1c(O[C@H]2CC[C@H](CCCN3CCN(c4cc5c(cc4F)C(=O)N(C4CCC(=O)NC4=O)C5=O)CC3)CC2)cccc1-c1ccc(N2CCc3cccc(C(=O)Nc4nc5ccccc5s4)c3C2)nc1C(=O)O` (stereo partly shown) [Compound 112a, 6-(8-(benzo[d]thiazol-2-ylcarbamoyl)-3,4-dihydroisoquinolin-2(1H)-yl)-3-(3-(((1s,4r)-4-(3-(4-(2-(2,6-dioxopiperidin-3-yl)-6-fluoro-1,3-dioxoisoindolin-5-yl)piperazin-1-yl)propyl)cyclohexyl)oxy)-2-methylphenyl)picolinic acid]: the “Ymin (6 h)” value is “B (50% ≤ Ymin < 70%)” and the “Ymin (24 h)” value was “C (Ymin ≥ 70%)”. The matching figures for `Cc1c(OCCCCCCCN2CCN(c3cc4c(cc3F)C(=O)N(C3CCC(=O)NC3=O)C4=O)CC2)cccc1-c1ccc(N2CCc3cccc(C(=O)Nc4nc5ccccc5s4)c3C2)nc1C(=O)NO` (stereo not shown) [Compound 137, N-(benzo[d]thiazol-2-yl)-2-(5-(3-((7-(4-(2-(2,6-dioxopiperidin-3-yl)-6-fluoro-1,3-dioxoisoindolin-5-yl)piperazin-1-yl)heptyl)oxy)-2-methylphenyl)-6-(hydroxycarbamoyl)pyridin-2-yl)-1,2,3,4-tetrahydroisoquinoline-8-carboxamide]: “C (Ymin ≥ 70%)” and “B (50% ≤ Ymin < 70%)”. The corresponding values for `Cc1c(OCCCCC2CCN(CC(=O)N3CCN(c4cc5c(cc4F)C(=O)N(C4CCC(=O)NC4=O)C5=O)CC3)CC2)cccc1-c1ccc(N2CCc3cccc(C(=O)Nc4nc5ccccc5s4)c3C2)nc1C(=O)O` (stereo not shown) [Compound 141] are “B (50% ≤ Ymin < 70%)” and “B (50% ≤ Ymin < 70%)”. Take `Cc1c(OCCC[C@H]2CCN(CC(=O)N3CCN(c4cc5c(cc4F)C(=O)N(C4CCC(=O)NC4=O)C5=O)CC3)C2)cccc1-c1ccc(N2CCc3cccc(C(=O)Nc4nc5ccccc5s4)c3C2)nc1C(=O)O` (stereo partly drawn) [Compound 122a, 6-(8-(benzo[d]thiazol-2-ylcarbamoyl)-3,4-dihydroisoquinolin-2(1H)-yl)-3-(3-(3-((3S)-1-(2-(4-(2-(2,6-dioxopiperidin-3-yl)-6-fluoro-1,3-dioxoisoindolin-5-yl)piperazin-1-yl)-2-oxoethyl)pyrrolidin-3-yl)propoxy)-2-methylphenyl)picolinic acid]: the “Ymin (24 h)” value was “B (50% ≤ Ymin < 70%)”.

Values taken from patent publication US20250282771A1, “TETRAHYDROISOQUINOLINE HETEROBIFUNCTIONAL BCL-XL DEGRADERS” (Treeline Biosciences, Inc., priority 2022, published 2025).
